Data taken from US20230121325A1, “FAST DISSOLVING PHARMACEUTICAL COMPOSITIONS” (XSPRAY PHARMA AB, priority 2021, published 2023).

Legend:
[1] = within and between patients; cited from earlier work
[2] = Food effect analysis of Test Formulation (Fasted Study vs Fed Study); type: in vivo, human; conditions: Test Formulation single dose, least-squares geometric mean
Description: Objective: The objective of this analysis was to investigate the effect of food on the single-dose PK of Test Formulation using fasted and fed PK data from two studies, referred to as “Fasted Study” and “Fed Study,” respectively below.
Methodology. Since the PK parameters following the oral administration of Test Formulation in fasting and fed conditions were obtained from two different studies (Fasted Study and Fed Study, respectively), the PK data were analyzed using an analysis of variance (ANOVA), which considered the data as if they were collected in a parallel design.
Both studies were fully replicate studies and therefore subjects were dosed with Test Formulation on two occasions. The PK population in this analysis included subjects who received Test Formulation on two occasions; subjects who received Test Formulation only once were not included in this analysis.
In the current analysis, data from the PK population of the Fasted Study and Fed Study were considered “Reference” Treatment and “Test” Treatment, respectively.
For each parameter, the value used for the subject was the geometric mean of the two values that were available for each subject. The use of geometric means is consistent with the assumption that PK parameters are In normally distributed. Subjects with only one period of data were not included in the ANOVA, as this would incorrectly imply that singular data have the same weight as subjects with replicate values for the parameter.
In the Fasted Study, 51 subjects received Test Formulation on at least one occasion under fasting conditions, of whom 44 received Test Formulation on both occasions.
In the Fed Study, 32 subjects received Test Formulation on at least one occasion under fed conditions, of whom 27 received Test Formulation on both occasions.

[3] = clinical; conditions: human, in vivo, 90 mg

Cc1nc(Nc2ncc(C(=O)Nc3c(C)cccc3Cl)s2)cc(N2CCN(CCO)CC2)n1 [Dasatinib, dasatinib]
coefficient of variation of AUC [1]: up to 100% | coefficient of variation of Cmax [1]: up to 100% | AUC(0-24 h) LSmeans Fed ([2]; fed (n = 27)): 413 ng·h/mL | AUC(0-t) ([2]; human, plasma, oral, fasting (n = 44), read-out: AUC(0-24 h) LSmeans Fasted): 433 ng·h/mL | AUC(0-inf) ([2]; human, plasma, oral, fasting (n = 44), read-out: AUC(0-∞) LSmeans Fasted): 446 ng·h/mL | Cmax ([2]; human, plasma, oral, fasting (n = 44), read-out: Cmax LSmeans Fasted): 127 ng/mL | AUC(0-inf) ([2]; human, plasma, oral, fed (n = 27), read-out: AUC(0-∞) LSmeans Fed): 431 ng·h/mL | Cmax ([2]; human, plasma, oral, fed (n = 27), read-out: Cmax LSmeans Fed): 67 ng/mL | AUC(0-inf) [3]: 434 ng·h/mL | Cmax [3]: 138 ng/mL
